Test results as given in patent publication US4760136A, “Chartreusin derivatives and salts thereof” (Ishihara Sangyo Kaisha, Ltd., priority 1984, dated 1988).

What was measured:
[1] = Acute toxicity, intravenous (once), ddY mice; type: in vivo; details: mouse, in vivo, iv, formulated per Preparation Example
Source text: In Table 7 are shown acute toxicity values (LD50, mg/kg) in ddY mice in the case of intravenously administering (once) each of the compounds of this invention in the form of preparations shown in the Preparation Examples shown in Table 7.

[2] = test system: P-388 leukemia cells; assay: Antitumor activity: P-388 leukemia cells inoculated intraperitoneally, drug administered intravenously, BDF1 mice; type: in vivo; details: BDF1 mice, P-388 i.p.; for response vs control in vivo at 60 mg/kg: dose e: 60 mg/kg × 3, i.v. on days 1, 5 and 9; for response vs control in vivo at 80 mg/kg: dose f: 80 mg/kg × 3, i.v. on days 1, 5 and 9
Experimental: Into BDF1 mice were inoculated intraperitoneally P-388 leukemia cells at a rate of 1×10^6 cells/mouse, and each drug to be tested was administered intravenously on the first, fifth and ninth days after the inoculation. […] The drugs were as follows solutions prepared by adding physiological saline to each of compound Nos. 8, 9, 10, 11, 17, 34, 42, 59, 80 and 134; suspensions prepared by dispersing each of compound Nos. 41, 78, 98, 100, 130, 191, 212, 213, 215, 227 and 230 to 232 and a small amount of sodium carboxymethyl cellulose (Na.CMC) in physiological saline, […]

[3] = Mus musculus, P388, iv, dose c: 40 mg/kg × 3, i.v. on days 1, 5 and 9, read-out: T/C (%) of MST
[4] = Mus musculus, P388, iv, dose b: 20 mg/kg × 3, i.v. on days 1, 5 and 9, read-out: T/C (%) of MST
[5] = dose c: 40 mg/kg × 3, i.v. on days 1, 5 and 9
[6] = Mus musculus, P388, iv, read-out: T/C (%) of MST
[7] = dose b: 20 mg/kg × 3, i.v. on days 1, 5 and 9

Structure (SMILES)	LD50 [1]	response vs control in vivo at 40 mg/kg [2, 3]	response vs control in vivo at 80 mg/kg [2, 6]	further results
COC(=O)CCC(=O)Oc1c2cccc(O[C@@H]3O[C@H](C)[C@@H]4OC(C)(C)O[C@@H]4[C@H]3O[C@H]3O[C@H](C)[C@H](O)[C@H](OC)[C@H]3O)c2c2oc(=O)c3c(C)ccc4oc(=O)c1c2c43 [compound 202]	≥ 60 mg/kg	174%		
COC1C(O)C(C)OC(OC2C(Oc3cccc4c(OC(=O)C5CCCCC5NC(=O)C(F)(F)F)c5c(=O)oc6ccc(C)c7c(=O)oc(c34)c5c67)OC(C)C3OC(c4cccc(F)c4)OC32)C1O (single isomer, unassigned) [Compound No. 27, 6-O-(N-Trifluoroacetyl-2-Amino-Cyclohexanecarbonyl)-3',4'-O-(m-Fluorobenzylidene)-Chartreusin]	≥ 30 mg/kg			response vs control in vivo at 20 mg/kg [2, 4]: 179%
COC1C(O)C(C)OC(OC2C(Oc3cccc4c(OC(=O)CCN5CCCC5)c5c(=O)oc6ccc(C)c7c(=O)oc(c34)c5c67)OC(C)C3OC(c4cccc(F)c4)OC32)C1O (stereo not drawn) [Compound No. 34, 6-O-(β-1-pyrrolidinyl-propionyl)-3',4'-O-(m-fluorobenzylidene)-chartreusin phosphate]	≥ 30 mg/kg	140%		
COC1C(O)C(C)OC(OC2C(Oc3cccc4c(OC(=O)CCCCCNC(=O)OCc5ccccc5)c5c(=O)oc6ccc(C)c7c(=O)oc(c34)c5c67)OC(C)C3OC(c4ccccc4)OC32)C1O (stereo not drawn) [compound 119]	≥ 40 mg/kg			T/C (%) of MST [2, 5]: 153%
COC1C(O)C(C)OC(OC2C(Oc3cccc4c(OC(=O)CCCNC(=O)C(F)(F)F)c5c(=O)oc6ccc(C)c7c(=O)oc(c34)c5c67)OC(C)C3OC(c4ccc(F)cc4)OC32)C1O (stereo not drawn) [compound 91]	≥ 40 mg/kg			T/C (%) of MST [2, 5]: 173%
COc1cccc(C(=O)Oc2c3cccc(O[C@@H]4O[C@H](C)[C@@H]5OC(c6ccccc6)O[C@@H]5[C@H]4O[C@H]4O[C@H](C)[C@H](O)[C@H](OC)[C@H]4O)c3c3oc(=O)c4c(C)ccc5oc(=O)c2c3c54)c1 (stereo partly drawn) [compound 193]	≥ 40 mg/kg			response vs control in vivo at 10 mg/kg ([2]; Mus musculus, P388, iv, dose a: 10 mg/kg × 3, i.v. on days 1, 5 and 9, read-out: T/C (%) of MST): 162%
CO[C@H]1[C@@H](O)[C@@H](C)O[C@H](O[C@H]2[C@H](Oc3cccc4c(OC(=O)C=C(C)C(F)(F)F)c5c(=O)oc6ccc(C)c7c(=O)oc(c34)c5c67)O[C@H](C)[C@@H]3OC(C)(C)O[C@@H]32)[C@@H]1O [compound 198]	≥ 80 mg/kg	176%		
COC1C(O)C(C)OC(OC2C(Oc3cccc4c(OC(=O)C5CC5)c5c(=O)oc6ccc(C)c7c(=O)oc(c34)c5c67)OC(C)C3OC(CCc4ccccc4)OC32)C1O (stereo not drawn) [compound 233]	≥ 60 mg/kg			response vs control in vivo at 60 mg/kg [2, 6]: 165%
CO[C@H]1[C@@H](O)[C@@H](C)O[C@H](O[C@H]2[C@H](Oc3cccc4c(OC(=O)c5ccccc5Cl)c5c(=O)oc6ccc(C)c7c(=O)oc(c34)c5c67)O[C@H](C)[C@@H]3OC(C)(C)O[C@@H]32)[C@@H]1O [Compound No. 181]	≥ 80 mg/kg	145%	208%	
COC1C(O)C(C)OC(OC2C(Oc3cccc4c(OC(=O)C(C)CN)c5c(=O)oc6ccc(C)c7c(=O)oc(c34)c5c67)OC(C)C3OC(c4cccc(F)c4)OC32)C1O (stereo not drawn) [Compound No. 14]	≥ 30 mg/kg			response vs control in vivo at 20 mg/kg [2, 4]: 195%
COC1C(O)C(C)OC(OC2C(Oc3cccc4c(OC(=O)CCNC(=O)OCc5ccccc5)c5c(=O)oc6ccc(C)c7c(=O)oc(c34)c5c67)OC(C)C3OC(c4ccccc4)OC32)C1O (stereo not drawn) [compound 103]		146%	203%	
COC1C(O)C(C)OC(OC2C(Oc3cccc4c(OC(=O)CCCl)c5c(=O)oc6ccc(C)c7c(=O)oc(c34)c5c67)OC(C)C3OC(C)(C)OC32)C1O (stereo not drawn) [Compound No. 157]	≥ 80 mg/kg	153%	201%	
COC1C(O)C(C)OC(OC2C(Oc3cccc4c(OC(=O)C(C)CNC(=O)c5ccccc5)c5c(=O)oc6ccc(C)c7c(=O)oc(c34)c5c67)OC(C)C3OC(c4ccccc4)OC32)C1O (stereo not drawn) [Compound No. 13]	≥ 40 mg/kg	262%		response vs control in vivo at 20 mg/kg [2, 4]: 186%
COC1C(O)C(C)OC(OC2C(Oc3cccc4c(OC(=O)CCNC=O)c5c(=O)oc6ccc(C)c7c(=O)oc(c34)c5c67)OC(C)C3OC(c4ccc(Cl)cc4Cl)OC32)C1O (stereo not drawn) [compound 93]	≥ 80 mg/kg		165%	
COC1C(O)C(C)OC(OC2C(Oc3cccc4c(OC(=O)C(CCSC)NC(=O)OCc5ccccc5)c5c(=O)oc6ccc(C)c7c(=O)oc(c34)c5c67)OC(C)C3OC(C)(C)OC32)C1O (stereo not drawn) [Compound No. 63]	≥ 120 mg/kg			response vs control in vivo at 50 mg/kg ([2]; Mus musculus, P388, iv, dose d: 50 mg/kg × 3, i.v. on days 1, 5 and 9, read-out: T/C (%) of MST): 150%; response vs control in vivo at 100 mg/kg ([2]; Mus musculus, P388, iv, dose g: 100 mg/kg × 3, i.v. on days 1, 5 and 9, read-out: T/C (%) of MST): 205%
COC1C(O)C(C)OC(OC2C(Oc3cccc4c(OC(=O)CCCNC(=O)OCc5ccccc5)c5c(=O)oc6ccc(C)c7c(=O)oc(c34)c5c67)OC(C)C3OC(C)(C)OC32)C1O (stereo not drawn) [compound 109]	≥ 100 mg/kg			response vs control in vivo at 60 mg/kg [2, 6]: 145%
COC1C(O)C(C)OC(OC2C(Oc3cccc4c(OC(=O)CCCCCCCNC(=O)C(F)(F)F)c5c(=O)oc6ccc(C)c7c(=O)oc(c34)c5c67)OC(C)C3OC(C)(C)OC32)C1O (stereo not drawn) [compound 99]	≥ 100 mg/kg		136%	
CO[C@H]1[C@@H](O)[C@@H](C)O[C@H](O[C@H]2[C@H](Oc3cccc4c(OC(=O)COc5ccccc5)c5c(=O)oc6ccc(C)c7c(=O)oc(c34)c5c67)O[C@H](C)[C@@H]3OC(C)(C)O[C@@H]32)[C@@H]1O [compound 205]	≥ 80 mg/kg	153%	173%	
CO[C@H]1[C@@H](O)[C@@H](C)O[C@H](O[C@H]2[C@H](Oc3cccc4c(OC(=O)c5ccc(C#N)cc5)c5c(=O)oc6ccc(C)c7c(=O)oc(c34)c5c67)O[C@H](C)[C@@H]3OC(c4ccccc4Cl)O[C@@H]32)[C@@H]1O (stereo partly drawn) [Compound No. 187]	≥ 80 mg/kg	130%	216%	
COC1C(O)C(C)OC(OC2C(Oc3cccc4c(OC(=O)CCC(C)=O)c5c(=O)oc6ccc(C)c7c(=O)oc(c34)c5c67)OC(C)C3OC(c4cccc(C(F)(F)F)c4)OC32)C1O (stereo not drawn) [Compound No. 162]	≥ 80 mg/kg	157%	243%	
COC1C(O)C(C)OC(OC2C(Oc3cccc4c(OC(=O)CCCO)c5c(=O)oc6ccc(C)c7c(=O)oc(c34)c5c67)OC(C)C3OC(c4ccccc4)OC32)C1O (stereo not drawn) [Compound No. 147, 6-O-(4-Hydroxy-n-Butyryl)-3',4'-O-Benzylidene-Chartreusin]	≥ 40 mg/kg			response vs control in vivo at 20 mg/kg [2, 4]: 214%
COC1C(O)C(C)OC(OC2C(Oc3cccc4c(OC(=O)CCNC=O)c5c(=O)oc6ccc(C)c7c(=O)oc(c34)c5c67)OC(C)C3OC(c4ccccc4)OC32)C1O (stereo not drawn) [Compound No. 45]		220%		T/C (%) of MST [2, 7]: 164%
COC1C(O)C(C)OC(OC2C(Oc3cccc4c(OC(=O)CCNC=O)c5c(=O)oc6ccc(C)c7c(=O)oc(c34)c5c67)OC(C)C3OC(c4ccccc4)OC32)C1O (stereo not drawn) [Compound No. 20]		248%		T/C (%) of MST [2, 7]: 203%
COC1C(O)C(C)OC(OC2C(Oc3cccc4c(OC(=O)CCCOCc5ccccc5)c5c(=O)oc6ccc(C)c7c(=O)oc(c34)c5c67)OC(C)C3OC(c4ccccc4)OC32)C1O (stereo not drawn) [Compound No. 165, 6-O-(4-benzyloxy-n-butyryl)-3',4'-O-Benzylidene-Chartreusin]				response vs control in vivo at 20 mg/kg [2, 4]: 189%
COC1C(O)C(C)OC(OC2C(Oc3cccc4c(OC(=O)C(C)CNC(=O)C(F)(F)F)c5c(=O)oc6ccc(C)c7c(=O)oc(c34)c5c67)OC(C)C3OC(c4ccccc4)OC32)C1O (stereo not drawn) [Compound No. 44]			217%	T/C (%) of MST [2, 5]: 164%
COC1C(O)C(C)OC(OC2C(Oc3cccc4c(OC(=O)CCNC(=O)C(F)(F)F)c5c(=O)oc6ccc(C)c7c(=O)oc(c34)c5c67)OC(C)C3OC(c4ccccc4)OC32)C1O (stereo not drawn) [Compound No. 21]				response vs control in vivo at 20 mg/kg [2, 4]: 210%; T/C (%) of MST [2, 5]: 229%
COC1C(O)C(C)OC(OC2C(Oc3cccc4c(OC(=O)CNC(=O)OCc5ccccc5)c5c(=O)oc6ccc(C)c7c(=O)oc(c34)c5c67)OC(C)C3OC(c4ccccc4)OC32)C1O (stereo not drawn) [compound 104]		137%		
COC1C(O)C(C)OC(OC2C(Oc3cccc4c(OC(=O)c5cccc(Cl)c5)c5c(=O)oc6ccc(C)c7c(=O)oc(c34)c5c67)OC(C)C3OC(C)(C)OC32)C1O (stereo not drawn) [compound 226]		145%		
